In patent US12227500B2, “Substituted pyrrolo[2,3-b]pyridines for suppressing toxic endoplasmic reticulum stress” (THE TRUSTEES OF COLUMBIA UNIVERSITY IN THE CITY OF NEW YORK, priority 2018, dated 2025):

Assays:
Format in all cases: biochemical
MLK3/MAP3K11 = target: T1, MLK3/MAP3K11 (Homo sapiens, UniProt Q16584); assay: Radiolabeled ATP kinase assay (Reaction Biology Corp.), MLK3; settings: for % Enzyme Activity Remaining (relative to DMSO controls), MLK3/MAP3K11, Data 1 / % Enzyme Activity Remaining (relative to DMSO controls), MLK3/MAP3K11, Data 2: [Cmpd] 0.1 μM, 10 μM ATP
T1 construct: purchased Reaction Biology Corp
T1 sequence (Q16584 whole entry): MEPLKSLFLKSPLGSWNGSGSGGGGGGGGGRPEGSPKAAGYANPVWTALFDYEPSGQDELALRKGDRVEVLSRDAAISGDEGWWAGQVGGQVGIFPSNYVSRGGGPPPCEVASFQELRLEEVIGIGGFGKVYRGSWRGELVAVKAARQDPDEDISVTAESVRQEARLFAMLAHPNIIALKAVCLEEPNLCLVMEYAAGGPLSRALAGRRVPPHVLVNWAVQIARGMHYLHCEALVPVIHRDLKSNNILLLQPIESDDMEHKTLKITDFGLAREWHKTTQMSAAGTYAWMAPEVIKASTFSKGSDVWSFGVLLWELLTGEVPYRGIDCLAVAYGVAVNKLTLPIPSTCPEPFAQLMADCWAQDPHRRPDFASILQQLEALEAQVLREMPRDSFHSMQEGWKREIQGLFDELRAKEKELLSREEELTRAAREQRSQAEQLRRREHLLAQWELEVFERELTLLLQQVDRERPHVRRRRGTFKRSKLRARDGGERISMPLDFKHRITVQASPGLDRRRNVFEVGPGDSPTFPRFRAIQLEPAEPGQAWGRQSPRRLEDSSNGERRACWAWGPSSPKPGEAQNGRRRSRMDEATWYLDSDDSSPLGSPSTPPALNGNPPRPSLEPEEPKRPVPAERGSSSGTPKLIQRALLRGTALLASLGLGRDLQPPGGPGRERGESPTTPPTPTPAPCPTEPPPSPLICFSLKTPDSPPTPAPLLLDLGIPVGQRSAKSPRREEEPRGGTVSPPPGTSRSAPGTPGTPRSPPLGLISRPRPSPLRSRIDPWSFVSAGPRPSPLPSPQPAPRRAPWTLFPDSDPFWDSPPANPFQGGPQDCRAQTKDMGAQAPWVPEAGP
Method: Meanwhile, the same analogs were analyzed in a radiolabeled ATP assay (10 μM ATP; Reaction Biology Corp.) to compare the extent to which they could inhibit the activity of HGK, MLK1, or MLK3 in a cell-free environment (Table S3 and S4).

[1] = target: T2, panel of 60 human kinases (Homo sapiens, UniProt O95819); assay: Radiolabeled ATP kinase assay, panel of 60 kinases (Table S5); settings: HGK/MAP4K4; 0.1 μM; 10 μM ATP; read-out: % Enzyme Activity (relative to DSMO controls)
T2 construct: purchased Reaction Biology Corp
T2 sequence (O95819 whole entry): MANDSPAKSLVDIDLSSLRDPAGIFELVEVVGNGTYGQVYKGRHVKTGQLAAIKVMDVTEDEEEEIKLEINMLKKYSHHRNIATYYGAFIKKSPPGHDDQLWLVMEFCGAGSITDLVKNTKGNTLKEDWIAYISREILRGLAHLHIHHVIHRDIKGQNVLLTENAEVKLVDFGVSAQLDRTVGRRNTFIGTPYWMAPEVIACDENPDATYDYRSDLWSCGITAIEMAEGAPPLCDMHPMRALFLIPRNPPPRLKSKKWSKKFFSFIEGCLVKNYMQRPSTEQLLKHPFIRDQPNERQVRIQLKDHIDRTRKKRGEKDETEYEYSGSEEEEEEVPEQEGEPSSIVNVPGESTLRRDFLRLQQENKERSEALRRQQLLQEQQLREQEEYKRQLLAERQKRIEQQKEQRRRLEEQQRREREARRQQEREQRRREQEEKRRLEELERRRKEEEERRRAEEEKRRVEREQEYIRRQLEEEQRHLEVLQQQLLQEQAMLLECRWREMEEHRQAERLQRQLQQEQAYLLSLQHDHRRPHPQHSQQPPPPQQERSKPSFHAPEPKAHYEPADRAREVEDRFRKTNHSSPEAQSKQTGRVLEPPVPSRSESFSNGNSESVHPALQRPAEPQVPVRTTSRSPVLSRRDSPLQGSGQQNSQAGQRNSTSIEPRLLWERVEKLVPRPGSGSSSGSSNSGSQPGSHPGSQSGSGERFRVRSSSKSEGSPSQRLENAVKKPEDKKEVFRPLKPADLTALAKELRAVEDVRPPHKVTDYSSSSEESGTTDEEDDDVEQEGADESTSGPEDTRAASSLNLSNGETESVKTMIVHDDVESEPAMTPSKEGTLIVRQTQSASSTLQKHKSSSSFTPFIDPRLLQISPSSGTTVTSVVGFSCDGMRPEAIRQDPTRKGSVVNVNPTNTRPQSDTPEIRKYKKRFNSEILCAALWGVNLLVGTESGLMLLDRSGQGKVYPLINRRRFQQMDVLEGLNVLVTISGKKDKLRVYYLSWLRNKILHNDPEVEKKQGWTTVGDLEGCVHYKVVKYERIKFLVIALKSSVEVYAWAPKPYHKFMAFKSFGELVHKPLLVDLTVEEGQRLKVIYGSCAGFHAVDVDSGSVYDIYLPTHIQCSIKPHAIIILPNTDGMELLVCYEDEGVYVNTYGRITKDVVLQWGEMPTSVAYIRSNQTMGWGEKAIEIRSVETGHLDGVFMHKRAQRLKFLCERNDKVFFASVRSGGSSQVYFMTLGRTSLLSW
Method: (§1) To better understand the biologically relevant targets of compound 1 and its analogs, a second round of cell-free kinase assays was performed. In this expanded assay, we selected ten analogs ranging from moderately to very strongly protective in the CPA assay. These analogs were evaluated for their ability to inhibit a selection of 60 kinases at 0.1 μM and 0.5 μM. […] RNAseq data were used to confirm the expression of each kinase in ES MNs (see Example 12).
(§2) RNAseq data were used to confirm the expression of each kinase in ES motor neurons (see Example 12).

[2] = target: T3, panel of 60 human kinases (Homo sapiens, UniProt P21802); assay: as above; settings: FGFR2; 0.1 μM; 10 μM ATP; read-out: % Enzyme Activity (relative to DSMO controls)
T3 construct: purchased Reaction Biology Corp
T3 sequence (P21802 22-821): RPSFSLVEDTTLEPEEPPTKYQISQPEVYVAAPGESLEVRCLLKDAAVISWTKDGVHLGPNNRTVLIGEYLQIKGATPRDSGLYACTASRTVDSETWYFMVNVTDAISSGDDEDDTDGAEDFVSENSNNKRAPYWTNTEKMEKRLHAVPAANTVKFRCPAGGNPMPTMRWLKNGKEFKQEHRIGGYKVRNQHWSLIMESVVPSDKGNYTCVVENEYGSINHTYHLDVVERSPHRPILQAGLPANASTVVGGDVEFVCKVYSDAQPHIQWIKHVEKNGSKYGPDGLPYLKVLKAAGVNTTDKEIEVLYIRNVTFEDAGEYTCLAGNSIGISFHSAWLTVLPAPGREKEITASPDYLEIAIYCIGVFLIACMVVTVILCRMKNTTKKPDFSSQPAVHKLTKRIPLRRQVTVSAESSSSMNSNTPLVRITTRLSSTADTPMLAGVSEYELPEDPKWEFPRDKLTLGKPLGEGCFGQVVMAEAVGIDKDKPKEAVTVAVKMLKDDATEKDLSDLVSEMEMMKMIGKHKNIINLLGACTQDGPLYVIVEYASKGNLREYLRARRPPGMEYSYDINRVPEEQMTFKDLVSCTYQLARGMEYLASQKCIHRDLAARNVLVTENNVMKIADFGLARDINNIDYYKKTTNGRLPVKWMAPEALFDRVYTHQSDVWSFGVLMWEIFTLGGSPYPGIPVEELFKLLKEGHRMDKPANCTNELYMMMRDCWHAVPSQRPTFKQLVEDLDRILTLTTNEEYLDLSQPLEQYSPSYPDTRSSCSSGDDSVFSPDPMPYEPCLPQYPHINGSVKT
Method: as §1, §2

[3] = target: T4, panel of 60 human kinases (Homo sapiens, UniProt P35916); assay: as above; settings: FLT4/VEGFR3; 0.1 μM; 10 μM ATP; read-out: % Enzyme Activity (relative to DSMO controls)
T4 construct: purchased Reaction Biology Corp
T4 sequence (P35916 25-1363): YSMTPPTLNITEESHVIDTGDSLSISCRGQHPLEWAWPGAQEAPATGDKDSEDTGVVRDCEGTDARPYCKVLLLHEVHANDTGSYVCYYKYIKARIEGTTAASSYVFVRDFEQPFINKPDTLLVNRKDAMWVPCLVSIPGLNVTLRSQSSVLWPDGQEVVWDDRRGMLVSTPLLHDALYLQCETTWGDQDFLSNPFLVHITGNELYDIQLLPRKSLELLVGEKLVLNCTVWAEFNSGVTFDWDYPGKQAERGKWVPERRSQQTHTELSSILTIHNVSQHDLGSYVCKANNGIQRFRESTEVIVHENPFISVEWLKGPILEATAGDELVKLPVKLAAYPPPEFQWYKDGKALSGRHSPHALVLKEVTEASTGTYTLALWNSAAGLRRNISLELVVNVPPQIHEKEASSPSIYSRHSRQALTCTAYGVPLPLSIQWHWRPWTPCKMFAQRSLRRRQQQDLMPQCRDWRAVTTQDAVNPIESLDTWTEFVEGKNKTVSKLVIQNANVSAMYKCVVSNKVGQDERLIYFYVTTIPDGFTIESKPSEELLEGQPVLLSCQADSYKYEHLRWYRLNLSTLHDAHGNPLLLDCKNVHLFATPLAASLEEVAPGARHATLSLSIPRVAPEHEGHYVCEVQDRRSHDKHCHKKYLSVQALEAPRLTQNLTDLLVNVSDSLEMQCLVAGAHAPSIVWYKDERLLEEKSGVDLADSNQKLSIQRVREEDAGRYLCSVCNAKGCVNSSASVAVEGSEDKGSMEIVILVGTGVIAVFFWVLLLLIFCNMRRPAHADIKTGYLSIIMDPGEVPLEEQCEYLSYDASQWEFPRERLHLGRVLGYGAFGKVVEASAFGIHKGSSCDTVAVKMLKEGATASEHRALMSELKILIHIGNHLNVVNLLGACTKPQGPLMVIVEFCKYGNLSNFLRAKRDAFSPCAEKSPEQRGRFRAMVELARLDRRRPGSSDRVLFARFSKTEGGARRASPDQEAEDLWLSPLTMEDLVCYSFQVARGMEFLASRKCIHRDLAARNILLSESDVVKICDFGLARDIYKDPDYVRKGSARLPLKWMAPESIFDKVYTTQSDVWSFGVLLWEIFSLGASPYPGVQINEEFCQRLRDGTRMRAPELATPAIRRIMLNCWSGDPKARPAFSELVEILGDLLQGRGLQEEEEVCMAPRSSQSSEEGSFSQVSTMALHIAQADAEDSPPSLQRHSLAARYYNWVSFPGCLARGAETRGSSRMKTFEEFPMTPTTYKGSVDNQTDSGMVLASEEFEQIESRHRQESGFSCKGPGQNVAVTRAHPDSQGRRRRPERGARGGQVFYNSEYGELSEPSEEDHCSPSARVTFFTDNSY
Method: as §1, §2

[4] = target: T5, panel of 60 human kinases (Homo sapiens, UniProt P42684); assay: as above; settings: ABL2/ARG; 0.1 μM; 10 μM ATP; read-out: % Enzyme Activity (relative to DSMO controls)
T5 construct: purchased Reaction Biology Corp
Method: as §1, §2

[5] = target: T6, panel of 60 human kinases (Homo sapiens, UniProt Q08345); assay: as above; settings: DDR1; 0.1 μM; 10 μM ATP; read-out: % Enzyme Activity (relative to DSMO controls)
T6 construct: purchased Reaction Biology Corp
T6 sequence (Q08345 19-913): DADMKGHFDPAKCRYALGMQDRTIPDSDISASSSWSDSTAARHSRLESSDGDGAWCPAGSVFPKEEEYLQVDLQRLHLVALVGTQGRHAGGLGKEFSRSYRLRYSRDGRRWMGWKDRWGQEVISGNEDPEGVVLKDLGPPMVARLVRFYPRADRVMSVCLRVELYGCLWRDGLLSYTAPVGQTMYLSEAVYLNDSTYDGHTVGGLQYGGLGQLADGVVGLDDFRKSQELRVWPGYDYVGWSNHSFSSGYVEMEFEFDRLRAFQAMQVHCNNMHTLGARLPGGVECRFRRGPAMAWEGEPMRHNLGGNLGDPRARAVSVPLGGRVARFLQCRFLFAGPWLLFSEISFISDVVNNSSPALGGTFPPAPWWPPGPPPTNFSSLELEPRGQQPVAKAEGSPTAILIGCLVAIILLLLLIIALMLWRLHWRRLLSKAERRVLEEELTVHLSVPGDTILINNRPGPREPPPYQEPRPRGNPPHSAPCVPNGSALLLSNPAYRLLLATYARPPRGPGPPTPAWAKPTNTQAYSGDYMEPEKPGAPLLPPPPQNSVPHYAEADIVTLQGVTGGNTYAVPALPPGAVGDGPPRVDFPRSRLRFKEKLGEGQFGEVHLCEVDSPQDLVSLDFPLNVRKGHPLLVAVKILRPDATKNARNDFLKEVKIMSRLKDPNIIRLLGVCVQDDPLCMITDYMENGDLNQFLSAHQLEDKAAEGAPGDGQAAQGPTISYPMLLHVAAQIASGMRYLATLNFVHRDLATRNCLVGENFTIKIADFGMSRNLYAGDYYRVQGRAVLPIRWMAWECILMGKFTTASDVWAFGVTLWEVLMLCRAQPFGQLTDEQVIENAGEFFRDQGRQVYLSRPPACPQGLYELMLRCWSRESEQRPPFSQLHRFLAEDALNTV
Method: as §1, §2

[6] = target: T7, panel of 60 human kinases (Homo sapiens, UniProt Q13470); assay: as above; settings: TNK1; 0.1 μM; 10 μM ATP; read-out: % Enzyme Activity (relative to DSMO controls)
T7 construct: purchased Reaction Biology Corp
T7 sequence (Q13470 1-666): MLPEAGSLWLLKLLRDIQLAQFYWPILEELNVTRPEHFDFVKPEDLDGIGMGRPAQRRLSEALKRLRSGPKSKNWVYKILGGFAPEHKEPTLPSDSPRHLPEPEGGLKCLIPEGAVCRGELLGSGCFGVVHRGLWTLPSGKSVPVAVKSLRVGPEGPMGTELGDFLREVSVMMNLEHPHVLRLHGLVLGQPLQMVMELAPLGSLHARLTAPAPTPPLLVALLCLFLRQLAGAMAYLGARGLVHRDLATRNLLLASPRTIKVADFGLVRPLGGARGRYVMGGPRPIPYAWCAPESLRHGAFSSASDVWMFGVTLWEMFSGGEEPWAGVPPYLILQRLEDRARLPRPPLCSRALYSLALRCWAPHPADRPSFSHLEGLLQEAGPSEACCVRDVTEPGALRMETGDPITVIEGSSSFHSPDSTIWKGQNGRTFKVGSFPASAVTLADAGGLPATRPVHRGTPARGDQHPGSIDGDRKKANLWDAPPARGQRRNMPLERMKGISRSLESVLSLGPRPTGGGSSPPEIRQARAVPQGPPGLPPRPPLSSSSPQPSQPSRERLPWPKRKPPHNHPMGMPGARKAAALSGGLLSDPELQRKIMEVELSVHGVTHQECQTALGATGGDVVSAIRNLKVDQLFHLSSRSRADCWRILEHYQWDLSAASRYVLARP
Method: as §1, §2

[7] = target: T8, panel of 60 human kinases (Homo sapiens, UniProt Q8N4C8); assay: as above; settings: MINK/MINK1; 0.1 μM; 10 μM ATP; read-out: % Enzyme Activity (relative to DSMO controls)
T8 construct: purchased Reaction Biology Corp
Method: as §1, §2

Structure (SMILES) | remaining activity at 0.1 µM (MLK3/MAP3K11; 0.1 μM) [%] | remaining activity at 0.1 µM [1] [%] | remaining activity at 0.1 µM [2] [%] | remaining activity at 0.1 µM [3] [%] | remaining activity at 0.1 µM [4] [%] | remaining activity at 0.1 µM [5] [%] | remaining activity at 0.1 µM [6] [%] | remaining activity at 0.1 µM [7] [%] | % Enzyme Activity Remaining (relative to DMSO controls), MLK3/MAP3K11, Data 1 (MLK3/MAP3K11) [%] | % Enzyme Activity Remaining (relative to DMSO controls), MLK3/MAP3K11, Data 2 (MLK3/MAP3K11) [%]
CN1CCN(Cc2ccc(-c3cnc4[nH]cc(-c5ccc6[nH]ccc6c5)c4c3)cc2)CC1 [Compound 1, 3-(1H-Indol-5-yl)-5-(4-((4-methylpiperazin-1-yl)methyl)phenyl)-1H-pyrrolo[2,3-b]pyridine, reference compound] | 10.5 | 1.96 | 52.9 | 34.5 | 54.9 | 47.5 | 28.8 | 5.53 | – | –
CN1CCN(Cc2ccc(-c3cnc4[nH]cc(-c5cccc(Cl)c5)c4c3)cc2)CC1 [Compound 7ad, 3-(3-Chlorophenyl)-5-(4-((4-methylpiperazin-1-yl)methyl)phenyl)-1H-pyrrolo[2,3-b]pyridine] | – | 1.36 | 77.6 | 80.5 | 83.7 | 82 | 53.5 | 3.06 | 37.50 | 38.21
CN1CCN(Cc2ccc(-c3cnc4[nH]cc(-c5cnn(Cc6ccccc6)c5)c4c3)cc2)CC1 [Compound 7ah, 3-(1-Benzyl-1H-pyrazol-4-yl)-5-(4-((4-methylpiperazin-1-yl)methyl)phenyl)-1H-pyrrolo[2,3-b]pyridine] | – | 5.18 | 73.8 | 34 | 95.1 | 38.3 | 37.8 | 5.06 | 32.02 | 32.11
Cc1nn(C)c(C)c1-c1c[nH]c2ncc(-c3ccc(CN4CCN(C)CC4)cc3)cc12 [Compound 7ai, 5-(4-((4-Methylpiperazin-1-yl)methyl)phenyl)-3-(1,3,5-trimethyl-1H-pyrazol-4-yl)-1H-pyrrolo[2,3-b]pyridine] | – | 9.15 | 80.9 | 60.3 | 44.4 | 76.5 | 63.6 | 7.8 | 93.11 | 88.00
CN1CCN(Cc2ccc(-c3cnc4[nH]cc(-c5ccccc5Cl)c4c3)cc2)CC1 [Compound 7as, 3-(2-Chlorophenyl)-5-(4-((4-methylpiperazin-1-yl)methyl)phenyl)-1H-pyrrolo[2,3-b]pyridine] | – | -0.5 | 41.1 | 23.2 | 0.99 | 35.6 | 33.9 | 0.19 | 49.99 | 51.55
COc1ccccc1-c1c[nH]c2ncc(-c3ccc(CN4CCN(C)CC4)cc3)cc12 [Compound 7at, 3-(2-Methoxyphenyl)-5-(4-((4-methylpiperazin-1-yl)methyl)phenyl)-1H-pyrrolo[2,3-b]pyridine] | – | 9.52 | 83.4 | 79.8 | 21.8 | 68.1 | 38.4 | 9.84 | 24.55 | 21.30
CN1CCN(Cc2ccc(-c3cnc4[nH]cc(-c5ccc6c(c5)OCCO6)c4c3)cc2)CC1 [Compound 7d, 3-(2,3-Dihydrobenzo[b][1,4]dioxin-6-yl)-5-(4-((4-methylpiperazin-1-yl)methyl)phenyl)-1H-pyrrolo[2,3-b]pyridine] | – | 2.05 | 70.4 | 39 | 72.7 | 57.4 | 44.3 | 6.69 | 25.04 | 18.84
CN1CCN(Cc2ccc(-c3cnc4[nH]cc(-c5ccncc5)c4c3)cc2)CC1 [Compound 7n, 5-(4-((4-Methylpiperazin-1-yl)methyl)phenyl)-3-(pyridin-4-yl)-1H-pyrrolo[2,3-b]pyridine] | – | 35 | 94 | 66 | 91.5 | 79.7 | 87.8 | 38.8 | 91.26 | 92.62
CN1CCN(Cc2ccc(-c3cnc4[nH]cc(-c5ccoc5)c4c3)cc2)CC1 [Compound 7w, 3-(Furan-3-yl)-5-(4-((4-methylpiperazin-1-yl)methyl)phenyl)-1H-pyrrolo[2,3-b]pyridine] | – | 2.85 | 77.8 | 64.6 | 77.6 | 75.2 | 73.2 | 3.72 | 75.10 | 76.98
